Measured values published in patent publication US20240415819A1, “MACROCYCLIC COMPOUNDS AS PROTEASOME SUBUNIT BETA TYPE-5 INHIBITORS” (Lead Discovery Center GmbH, priority 2021, published 2024).

Legend:
[1] = system: HT-29 cells; assay: CellTiter-Glo luminescent cell viability assay with HT-29 cells (72h incubation); format: cell-based, human; settings: Homo sapiens, HT-29, HT29 cells, read-out: CTG HT29
How it was run: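 Viability read as CellTiter-Glo luminescence after 72 h compound exposure, with 10 μM staurosporine and DMSO as control wells. Seeding 400 cells per well, compound added 24 h post-plating; IC50 from curve fitting.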

[2] = system: hPMBC; assay: Chymotrypsin-like ProteasomeGlo assay in hPBMC; format: cell-based; settings: Homo sapiens; read-out: Pglo hPBMC
Text: Chymotrypsin-like ProteasomeGlo assay in the B-cells isolated from PBMC's following compound addition (IC50). • 1. PBMC's will be isolated from human blood followed by B-cell isolation from the PBMC's using the Miltenyi Isolation Kit. • 2. This experiment will use the Chymotrypsin-like ProteasomeGlo read-out to generate IC50's following compound treatment. • 3. Dilute all compounds 1:100 for the assay. • 4. […] Repeat the DMSO transfer with lane 12. • 5. Lane 12 should not be seeded with any cells. Only medium! • 6. For all steps, make sure the samples and reagents remain cool! • 7. While dealing with the buffy coats, be careful to not let any exposed skin to be in direct contact with the blood.
For the initial steps and to make processing the buffy coats easier, separately process the buffy coats. • a. Cut the tube attached to the buffy coats carefully using a clean, sterile and fresh scalpel. • b. Transfer the blood into 2 individual 50 ml falcons. • c. Add an equal volume of DPBS to the blood in the falcons. • d. Add ˜20 ml of lymphocyte separating medium to two 50 ml falcons. • e. Carefully pour 15-20 ml of the blood+DPBS mix from step c. onto the lymphocyte separating medium from step d. • f. Centrifuge the falcons with the lymphocyte separating medium+blood mix at 800×g for 15 minutes using a swing-out rotor. • g. Following centrifugation, carefully remove the falcons from the centrifuge. • h. The following layers will be observed: • i. Aspirate the plasma layer off carefully without disturbing the different layers. • j. Remove the cell pellet using a pipette into two fresh 50 ml falcons. • k. Fill the falcons with the cells up to 50 ml with DPBS. • l. Centrifuge the falcons at 250×g for 10 minutes using a swing-out rotor (Brake-off). • m. Aspirate the complete DPBS off the cells without disturbing the cell pellet at the bottom of the falcon. • n. Re-suspend the cell pellet in 10 ml of 1×RBC lysis buffer. • o. Incubate the falcons at room temperature in the dark for 10 minutes. • p. After RBC lysis, centrifuge the tubes at 250×g for 10 minutes using a swing-out rotor (brake-off). • (*Note: If the cell pellet is still red or light red, repeat steps n. to p.!) • q. Re-suspend the cell pellet in DPBS up to 50 ml in the falcon. • r. Centrifuge the falcons at 250×g for 10 minutes using a swing-out rotor (Brake-off). • s. Aspirate the DPBS off the cells without disturbing the cell pellet at the bottom of the falcon. • t. Repeat the wash step as described in steps q. to s. 2× times more (total number of washes is 3×). • u. Aspirate the DPBS completely off the cell pellet after the last wash without disturbing the cell pellet. • v. Re-suspend the cell pellet in 20 ml of PBMC cell medium. • w.
• a. Remove the plates with cells from the incubator. • b. Take all the plates including the compound plate, intermediate plate and Staurosporine plate to the ECHO. • c. Click on “Open” in the ECHO software and select the protocol “QLI5_25ul_30 uM-Grenier”. • d. Follow the on-screen prompts and instructions once you click “Start” to insert the compound plate, intermediate plate and destination plates. • e. Change the final number of destination plates on the program. • f. Follow the on-screen prompts and instructions once you click “Start” to load the Staurosporine and destination plates. • g. Once all the compounds, DMSO and Staurosporine have been transferred, place the destination plates in a wet tissue box. • h. Place the destination plates back into the incubator and incubate at 37° C., 5% CO2 for 105 minutes. • i. Re-seal all the compound+Stauro diamond and intermediate plates and store in the dark. Chymotrypsin like ProteasomeGlo Assay • 1. Thaw the components of the ProteasomeGlo assay at room temperature including the ProteasomeGlo Buffer, the lyophilized Luciferin Detection Reagent and the Suc-LLVY-Glo Substrate. • 2. […]

[3] = biological target: T1, β5 subunit of the human immunoproteasome (IPS) (Homo sapiens, UniProt P28062); assay: β5 inhibition assay, human immunoproteasome (Suc-LLVY-AMC); format: biochemical; settings: IC50 class, Suc-LLVY-AMC substrate
T1 construct: purchased Boston Biochem E-370
How it was run: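 β5 activity is read as liberated AMC fluorescence (355/460 nm) after 4 h dark reaction at RT with 22.6 μM Suc-LLVY-AMC, stopped by 1 μM bortezomib. Beforehand, 1 nM human IPS and compound sat 10 min at RT in HEPES pH 7.5 buffer containing NaCl, 0.02% SDS and DTT.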

[4] = system: A549 (human lung carcinoma cell line); assay: Glo assay of A549 cells (Table 3; ProteasomeGlo plating scheme); format: cell-based; settings: Homo sapiens; A549 cells; read-out: PGLo A549
How it was run: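 Luminescent read-out of cellular chymotrypsin-like proteasome activity: cells exposed to compound 105 min at 37° C., 5% CO2, then given Suc-LLVY-Glo reagent, shaken 2-5 min and kept dark 10-15 min before reading. Values are IC50 [nM].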

[5] = system: RPMI 8226 (B lymphocyte cell line, multiple myeloma); assay: 48 hr CTG viability assay, RPMI 8226; format: cell-based; settings: Homo sapiens, RPMI-8226; 48 hr CTG; read-out: RPMI-8226 IC50
How it was run: (§1)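 Growth inhibition by compound over 48 h; IC50 (nM) derived from duplicate CellTiter-Glo luminescence readings across 0.0015–10 uM.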

[6] = system: Hs 746T (human gastric carcinoma cell line); assay: 48 hr CTG viability assay, Hs 746T; format: cell-based; settings: Hs746T, 48 hr CTG, read-out: Hs 746T IC50
How it was run: as §1

[7] = biological target: T2, β5 subunit of the human constitutive proteasome (CPS) (Homo sapiens, UniProt P28074); assay: β5 inhibition assay, human constitutive proteasome (Suc-LLVY-AMC); format: biochemical; settings: IC50 class, Suc-LLVY-AMC substrate
T2 construct: purchased Boston Biochem E-360
Experimental: The enzymatic activity of the β5 subunit of the human constitutive proteasome (CPS) is analyzed. In another assay, which differs from the assay of the human constitutive proteasome only in using the human immunoproteasome (IPS) the enzymatic activity of the β5 subunit of the human immunoproteasome (IPS) is analyzed. […] Inhibition is indicated as IC50 [nM] (“-”=not measured).

[8] = system: MM1 S (B lymphoblast cell line); assay: 48 hr CTG viability assay, MM1S; format: cell-based; settings: Homo sapiens, 48 hr CTG, read-out: MM1S IC50
How it was run: as §1

IC50 [1] | IC50 [2] | IC50 [3] | IC50 [4] | IC50 [5] | IC50 [6] | IC50 [7] | IC50 [8] | SMILES
– | – | < 0.1 µM | < 0.1 µM | < 0.1 µM | 0.1 to 0.5 µM | < 0.1 µM | 0.1 to 0.5 µM | Cc1ccc2cc1CNC(=O)[C@H](CCc1ccccc1)NC(=O)[C@@H](NC(=O)C1CC3(C1)CN(C)C3)CC(=O)N1CCCC(CCO2)C1 (stereo partly drawn) [Compound 714, 2-methyl-N-((9S,12S)-5^4-methyl-8,11,14-trioxo-9-phenethyl-4-oxa-7,10-diaza-1(3,1)-piperidina-5(1,3)-benzenacyclotetradecaphane-12-yl)-2-azaspiro[3.3]heptane-6-carboxamide]
– | – | < 0.1 µM | < 0.1 µM | < 0.1 µM | < 0.1 µM | < 0.1 µM | < 0.1 µM | Cc1ccc2cc1CNC(=O)[C@H](CCc1ccccc1)NC(=O)[C@@H](NC(=O)CCNC1CC3(CCC3)C1)CC(=O)N1CCCC(CCO2)C1 (stereo partly drawn) [Compound 657, N-((9S,12S)-5^4-methyl-8,11,14-trioxo-9-phenethyl-4-oxa-7,10-diaza-1(3,1)-piperidina-5(1,3)-benzenacyclotetradecaphane-12-yl)-3-(spiro[3.3]heptan-2-ylamino)propanamide]
– | – | < 0.1 µM | < 0.1 µM | < 0.1 µM | < 0.1 µM | < 0.1 µM | < 0.1 µM | Cc1ccc2cc1CNC(=O)[C@H](CCc1ccccc1)NC(=O)[C@@H](NC(=O)CCN1CC3(CCC3)C1)CC(=O)N1CCCC(CCO2)C1 (stereo partly drawn) [Compound 659, N-((9S,12S)-5^4-methyl-8,11,14-trioxo-9-phenethyl-4-oxa-7,10-diaza-1(3,1)-piperidina-5(1,3)-benzenacyclotetradecaphane-12-yl)-3-(2-azaspiro[3.3]heptan-2-yl)propanamide]
– | – | < 0.1 µM | < 0.1 µM | < 0.1 µM | < 0.1 µM | < 0.1 µM | < 0.1 µM | Cc1ccc2cc1CNC(=O)[C@H](CCc1ccccc1)NC(=O)[C@@H](NC(=O)CCNCCC1CC3CCC1C3)CC(=O)N1CCCC(CCO2)C1 (stereo partly drawn) [Compound 698, 3-((2-(bicyclo[2.2.1]heptan-2-yl)ethyl)amino)-N-((9S,12S)-5^4-methyl-8,11,14-trioxo-9-phenethyl-4-oxa-7,10-diaza-1(3,1)-piperidina-5(1,3)-benzenacyclotetradecaphane-12-yl)propanamide]

Second part, the compound before the results:

SMILES | IC50 [1] | IC50 [2] | IC50 [3] | IC50 [4] | IC50 [5] | IC50 [6] | IC50 [7] | IC50 [8]
CC(=O)N[C@H]1CC(=O)N2CC(COc3ccc(C)c(c3)CNC(=O)[C@H](CCc3ccccc3)NC1=O)C2 [Compound 259, N-((8S,11S)-4^4-methyl-7,10,13-trioxo-8-phenethyl-3-oxa-6,9-diaza-1(3,1)-azetidina-4(1,3)-benzenacyclotridecaphane-11-yl)acetamide] | 0.1 to 0.5 µM | > 5 µM | – | – | – | – | – | –
CC(=O)N[C@H]1CC(=O)N(C)CCCOc2ccc(C)c(c2)CNC(=O)[C@H](CCc2ccccc2)NC1=O [Compound 256, N-((9S,12S)-1^4,6-dimethyl-7,10,13-trioxo-12-phenethyl-2-oxa-6,11,14-triaza-1(1,3)-benzenacyclopentadecaphane-9-yl)acetamide] | 0.1 to 0.5 µM | > 5 µM | – | – | – | – | – | –
Cc1cc2cc(c1C)CNC(=O)[C@H](CCc1ccccc1)NC(=O)[C@@H](NC(=O)OCc1ccccc1)CCCC(=O)NCCCCO2 [Compound 354, benzyl ((12S,15S)-14,15-dimethyl-8,13,16-trioxo-15-phenethyl-2-oxa-7,14,17-triaza-1(1,3)-benzenacyclooctadecaphane-12-yl)carbamate] | 0.1 to 0.5 µM | < 0.1 µM | – | – | – | – | – | –
Cc1ccc2cc1CNC(=O)[C@H](CCc1ccccc1)NC(=O)[C@@H](NC(=O)CC1COC1)CC(=O)N1CCCC(CCO2)C1 (stereo partly drawn) [Compound 635, N-((9S,12S)-5^4-methyl-8,11,14-trioxo-9-phenethyl-4-oxa-7,10-diaza-1(3,1)-piperidina-5(1,3)-benzenacyclotetradecaphane-12-yl)-2-(oxetan-3-yl)acetamide] | – | – | < 0.1 µM | < 0.1 µM | < 0.1 µM | < 0.1 µM | < 0.1 µM | < 0.1 µM
Cc1ccc2cc1CNC(=O)[C@H](CCc1ccccc1)NC(=O)[C@@H](NC(=O)CCNC(=O)c1ccc(N3CCOCC3)cc1)CC(=O)N1CCCC(CCO2)C1 (stereo partly drawn) [Compound 604, N-(3-(((9S,12S)-5^4-methyl-8,11,14-trioxo-9-phenethyl-4-oxa-7,10-diaza-1(3,1)-piperidina-5(1,3)-benzenacyclotetradecaphane-12-yl)amino)-3-oxopropyl)-4-morpholinobenzamide] | – | – | < 0.1 µM | < 0.1 µM | < 0.1 µM | < 0.1 µM | < 0.1 µM | < 0.1 µM
Cc1ccc2cc1CNC(=O)[C@H](CCc1ccccc1)NC(=O)[C@@H](NC(=O)C(F)(F)CN)CC(=O)N1CCCC(CCO2)C1 (stereo partly drawn) [Compound 598, 3-amino-2,2-difluoro-N-((9S,12S)-5^4-methyl-8,11,14-trioxo-9-phenethyl-4-oxa-7,10-diaza-1(3,1)-piperidina-5(1,3)-benzenacyclotetradecaphane-12-yl)propanamide] | – | – | < 0.1 µM | < 0.1 µM | < 0.1 µM | < 0.1 µM | < 0.1 µM | < 0.1 µM
Cc1ccc2cc1CNC(=O)[C@H](CCc1ccccc1)NC(=O)[C@@H](NC(=O)Cc1ccccc1)CCOC(=O)N1CCCC(CCO2)C1 (stereo partly drawn) [Compound 624, N-((9S,12S)-5^4-methyl-8,11,16-trioxo-9-phenethyl-4,15-dioxa-7,10-diaza-1(3,1)-piperidina-5(1,3)-benzenacyclohexadecaphane-12-yl)-2-phenylacetamide] | – | – | < 0.1 µM | < 0.1 µM | < 0.1 µM | < 0.1 µM | < 0.1 µM | < 0.1 µM
